Test results: patent US9585933B2, “Therapeutic use of peptide inhibitors of NADPH oxidase; aerosolization as a delivery mechanism” (University of Pittsburgh—Of the Commonwealth System of …, priority 2011, dated 2017)
Where no end group is shown, it is not given here.

Biological target: T1, Nox2 oxidase (COS-Nox2 lysate) (Homo sapiens, UniProt P14598)
T1 construct: host or cells: COS 7 cells, stably transfected; cell lysate used
T1 sequence (P14598 1-390): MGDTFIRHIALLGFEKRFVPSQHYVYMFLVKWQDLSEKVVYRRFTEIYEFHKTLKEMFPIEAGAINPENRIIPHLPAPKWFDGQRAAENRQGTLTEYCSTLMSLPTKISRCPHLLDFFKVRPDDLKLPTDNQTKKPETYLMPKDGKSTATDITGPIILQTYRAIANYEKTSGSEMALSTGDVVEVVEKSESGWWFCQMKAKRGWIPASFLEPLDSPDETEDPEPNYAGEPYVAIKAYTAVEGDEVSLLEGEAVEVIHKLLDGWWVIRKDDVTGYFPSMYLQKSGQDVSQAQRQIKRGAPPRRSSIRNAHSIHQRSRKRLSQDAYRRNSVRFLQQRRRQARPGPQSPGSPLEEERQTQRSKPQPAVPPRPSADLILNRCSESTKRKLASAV
Assay: EPR with spin probe CMH, O2- production in COS-Nox2 lysates
Type: biochemical
Conditions: 10 μM peptide, vehicle 36330±2658
Procedure: To test this hypothesis, the inhibitory activity of Nox2ds was assessed in cell-free assays using reconstituted systems expressing either Nox1, 2 or 4 oxidase. Nox 2 oxidase was recapitulated by stably transfecting COS 7 cells with Nox2, p22phox, p47phox, and p67phox (aka COS-Nox2). Nox1 oxidase was obtained by transfecting COS 7 cells with Nox1, p22phox, NOXO1 and NOXA1 (COS-Nox1), and Nox 4 oxidase was regenerated by transfection of COS 7 cells with Nox4 and p22phox. […] Our new data support selectivity of Nox2ds peptide in differentiating the contribution of Nox2 vs. Nox1 and Nox4 NADPH oxidase and its potential clinical use in ameliorating cardiopulmonary diseases.
The spin probe 1-hydroxy-3-methoxycarbonyl-2,2,5,5-tetramethylpyrrolidine hydrochloride (CMH; Alexis Corp., San Diego, Calif., USA) was used to examine O2^− production in COS-Nox2 cell lysates using a Bruker eScan table-top EPR spectrometer (Bruker Biospin, USA). Superoxide production was measured in oxidase assay buffer (65 mM sodium phosphate buffer, pH 7.0, 1 mM EGTA, 10 μM FAD, 1 mM MgCl2, 2 mM NaN3) supplemented with 50 μM CMH. […] Analyses of the EPR spectra peak heights were used to quantify the amount of O2^− produced by the lysates and were compared with buffer-only control spectra or spectra in the presence of 10 μM Nox2ds, 10 μM Scrmb Nox2ds, or 150 U/ml SOD. […]

Q: How did the “CM radical intensity (EPR, O2- production)” value turn out when CSTRVRRQL-NH2 [Nox2ds, CSTRVRRQL] was run?
A: Its value is 18360±2666.
